Assay [1] deals with T1, Ub (Homo sapiens, UniProt P0CG48).
T1 construct: gene UBC; 15N-labeled Ub; cDNA encoding Ub cloned into pET-3a, expressed in E. coli
The following applies: cited from earlier work. The text has this: (§1) There are about 20∼50 residues inserted in between two UIMs of S5a and Vps27, but the linker region between the two UIMs of AT3 is very short. These adjoining UIM motifs in AT3 raise a possible cooperativity for binding with Ub. Our structure determination and titration experiments reveal that the individual UIMs of AT3 can bind Ub respectively but with lower affinities. […] It seems that the cooperative interaction of AT3-UIM12 with diUb or polyUb is more remarkable than that with monoUb (Supplemental Fig. S7). […] Therefore, the altered affinities of AT3-UIM12 for monoUb or diUb may result from structural transformation of the linker region. The backbone dynamics provides further evidence for the conformational change in the linker region, which possibly allows cooperative interaction with Ub.

Assay [2] addresses Ub. The following applies: cited from earlier work.
Source text: as §1

In assay [3] the target is T1, Ub. To be noted: read-out: K D,app.
Description: ^15N-Ub at a molar concentration of ∼0.2 mM was titrated with increasing amount of UIM peptides or its mutants. A series of ^1H-^15N HSQC spectra of Ub were obtained and the chemical shift changes were measured for each molar ratio. […] The combined average chemical shift changes (Δδave) were calculated as Δδave = [(0.2*ΔδN)^ 2 + (ΔδHN)^ 2]^1/2, where ΔδHN and ΔδN are the chemical shift changes in the ^1H and ^15N dimensions, respectively. […] The dissociation constant (K D) for the UIM-Ub binding was obtained by fitting the titration curves [61].
^15N- or ^15N/^13C-labeled samples (∼1 mM) were dissolved in a PBS buffer (20 mM phosphate, 100 mM NaCl, pH 6.5) containing 8% or 100% D2O and 0.02% (w/v) NaN3. […] All the NMR experiments were performed at 25°C on a Varian UNITY INOVA 600 MHz spectrometer equipped with three RF channels and a triple-resonance pulsed-field gradient probe.

pKd: −log10 of the molar value. Like-named read-outs stand apart in the source and are kept apart here.

As to “S5a UIM1 (210–230 in alignment); construct not told”, the pKd on Ub [1] was about 3.46. Regarding “S5a UIM2 (281–301 in alignment); construct not told”, the pKd at Ub [1] was 4.14. As to “Vps27p UIM1 (257–277 in alignment); construct not told”, at Ub [2], the pKd was 3.56.

As to “Vps27p UIM2 (300–320 in alignment); construct not told”, the pKd on Ub [2] is 3.93. As for “ataxin-3 residues 335–354; GB1 fusion [AT3-UIM3]”, at Ub [3], the pKd is under 2.52.

These data come from PMC2951365, “Structural Transformation of the Tandem Ubiquitin-Interacting Motifs in Ataxin-3 and Their Cooperative Interactions with Ubiquitin Chains” (PLoS ONE, 2010).
